Test results reported in patent US20240425529A1, “BORIC ACID DERIVATIVE” (SHOUYAO HOLDINGS (BEIJING) CO., LTD., priority 2021, published 2024).

Key:
LMP7 [1] = molecular target: T1, LMP7 (Homo sapiens, UniProt P28062); assay: Enzymatic inhibitory activity on LMP7 (MOLT-4 cell lysate, Ac-ANW-AMC substrate); assay type: biochemical; conditions: 1 hour pre-incubation
T1 construct: using MOLT-4 cell lysate as the enzyme source of LMP7; endogenous in cells; host or cells: MOLT-4 (human acute lymphoblastic leukemia cells)
Method in brief: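 Enzyme source was MOLT-4 cell lysate (20 ng/μl final) in 20 mM Tris pH 8.0, 0.5 mM EDTA, preincubated 1 h at 23 °C with compound at 9 final concentrations (0–2000 nM). Ac-ANW-AMC ([…]) was then added, 2 h at 23 °C in the dark. AMC fluorescence (ex 345/em 445 nm) gave the IC50.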

[2] = Animal pharmacokinetic study in rats, single gavage; assay type: in vivo; conditions: rat, po; male rats, single gavage 5 mg/kg, plasma
Procedure: Three healthy adult male rats from Beijing Vital River Experimental animal Technology Co. Ltd were used for animal pharmacokinetic experiments. The compounds were suspended in 20% sulfobutyl ether-β-cyclodextrin (W/W/V) at a concentration of 1 mg/mL at a dosing volume of 5 mL/kg by single gavage at a dose of 5 mg/kg. Animals were fasted overnight before the experiment, from 10 hours before the administration to 4 hours after the administration. Blood was collected at 0.25, 0.5, 1, 2, 4, 6, 8, and 24 hours after the administration. The animals were anesthetized with isoflurane. About 0.4 mL of whole blood was collected from the orbital venous plexus using a glass blood collection tube and placed in a heparin anticoagulant tube. The sample was centrifuged at 4200 rpm for 5 min at 4° C. The plasma was transferred to a centrifuge tube and stored at −80° C. for later analysis. The plasma sample analysis used the acetonitrile protein precipitation method to extract the compound to be tested and internal standard (Warfarin or Propranolol) from rat plasma, and the extraction solution was analyzed by LC/MS/MS. The plasma concentration-time data of individual animals measured were analyzed using anon-compartmental model using the WinNonlin (version 5.2.1; Pharsight company) software, and the following pharmacokinetic parameters were obtained: maximum (peak) plasma drug concentration Cmax; Time to max Tmax; the area under the curve AUC0-inf of blood drug concentration-time from half-life T½ and extrapolation to infinite time.

LMP7 [3] = molecular target: T1, LMP7; assay: Cytological inhibitory activity on LMP7 in MOLT-4 cells; assay type: cell-based; conditions: incubation for 2 hours with compound, read-out: Cytological activity data LMP7 Activity (MOLT-4Cell)
Method in brief: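 MOLT-4 cells pre-incubated 2 h with compound (8 concentrations, 5-fold dilution series from 2 mM DMSO stock, 5% FBS), washed and lysed. Lysate (20 ng/μl, 2× stock) reacted with Ac-ANW-AMC (100 μM, 2× stock) in 20 mM Tris pH 8.0, 0.5 mM EDTA, 1 h, 23 °C. Fluorescence at 345/445 nm; IC50 fitted.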

β5 = molecular target: T2, β5 (Homo sapiens, UniProt P28074); assay: Enzymatic inhibitory activity on β5 (HEK-293 cell lysate, Ac-WLA-AMC substrate); assay type: biochemical; conditions: 1 hour pre-incubation
T2 construct: using HEK-293 cell lysate as the enzyme source of D5; endogenous in cells; host or cells: HEK-293 (human embryonic kidney cells)
Method in brief: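 HEK-293 lysate (25 ng/μl final) preincubated 1 h at 23 °C with compound (9-point, 5-fold dilutions) in 20 mM Tris pH 8.0, 0.5 mM EDTA. Ac-WLA-AMC then added at 20 μM final for 2 h at 23 °C in the dark. AMC fluorescence read at Ex 345/Em 445 nm; IC50 from curve fit.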

Structure (SMILES) | IC50 (LMP7 [1]) | AUC(0-inf) [2] | Cmax [2] | Tmax [2] | half-life [2] | IC50 (LMP7 [3]) | IC50 (β5)
O=C(N[C@@H](Cc1coc2ccccc12)B(O)O)C(=O)N1CCOCC1 [Ex. 5, (R)-(2-(benzofuran-3-yl)-1-(2-morpholino-2-oxoacetamido)ethyl)boronic acid] | 15.6 nM | 20900 ng·h/mL | 3800 ng/mL | 1.17 h | 4.2 h |  | 
O=C(Nc1nccs1)C(=O)N[C@@H](Cc1coc2ccccc12)B(O)O [Ex. 25, (R)-(2-(benzofuran-3-yl)-1-(2-oxo-2-(thiazol-2-ylamino)acetamido)ethyl) boronic acid] |  | 108000 ng·h/mL | 7710 ng/mL | 0.42 h | 14.4 h |  | 
CC1(C)[C@@H]2C[C@H]3OB([C@H](Cc4coc5ccccc45)NC(=O)C(=O)Nc4ccc(F)cc4F)O[C@@]3(C)[C@H]1C2 [Ex. 54, (R)-(2-(benzofuran-3-yl)-1-(2-oxo-2-(2,4-difluorophenylamino)acetamido)ethyl)boronic acid (1S,2S,3R,5S)-(+)-pinane-2,3-diol ester] | 0.89 nM |  |  |  |  | 5.33 nM | 23.7 nM
O=C(Nc1ccc(F)cc1F)C(=O)N[C@@H](Cc1coc2ccccc12)B(O)O [Ex. 55, (R)-(2-(benzofuran-3-yl)-1-(2-oxo-2-(2,4-difluorophenylamino)acetamido)ethyl)boronic acid] | 1.43 nM |  |  |  |  | 6.84 nM | 54.6 nM
O=C(N[C@@H](Cc1coc2ccccc12)B(O)O)C(=O)N1CCCC(F)(F)C1 [Ex. 56, (R)-(2-(benzofuran-3-yl)-1-(2-oxo-2-(3,3-difluoropiperidin-1-yl)acetamido)ethyl)boronic acid] | 7.48 nM |  |  |  |  | 6.39 nM | 88.4 nM
Cn1cccc(NC(=O)C(=O)N[C@@H](Cc2coc3ccccc23)B2O[C@@H]3C[C@@H]4C[C@@H](C4(C)C)[C@]3(C)O2)c1=O [Ex. 57, (R)-(2-(benzofuran-3-yl)-1-(2-oxo-2-((1-methyl-2-oxo-1,2-dihydropyridin-3-yl)amino)acetamido)ethyl)boronic acid (1S,2S,3R,5S)-(+)-pinane-2,3-diol ester] | 1.32 nM |  |  |  |  | 4.03 nM | 140 nM
Cn1cccc(NC(=O)C(=O)N[C@@H](Cc2coc3ccccc23)B(O)O)c1=O [Ex. 58, (R)-(2-(benzofuran-3-yl)-1-(2-oxo-2-((1-methyl-2-oxo-1,2-dihydropyridin-3-yl)amino)acetamido)ethyl)boronic acid] | 0.95 nM |  |  |  |  | 5.45 nM | 84.1 nM
COC(=O)C(=O)N[C@@H](Cc1coc2ccccc12)B1O[C@@H]2CC3C[C@@H](C3(C)C)[C@]2(C)O1 [Ex. 61, (R)-(2-(benzofuran-3-yl)-1-(2-oxo-2-methoxyacetamido)ethyl)boronic acid (1S,2S,3R,5S)-(+)-pinane-2,3-diol ester] | 4.27 nM |  |  |  |  | 46.6 nM | 722 nM
COC(=O)C(=O)N[C@@H](Cc1coc2ccccc12)B(O)O [Ex. 62, (R)-(2-(benzofuran-3-yl)-1-(2-oxo-2-methoxyacetamido)ethyl)boronic acid] | 7.89 nM |  |  |  |  | 26.7 nM | 1300 nM
O=C(Nc1cccnc1Cl)C(=O)N[C@@H](Cc1coc2ccccc12)B(O)O [Ex. 64, (R)-(2-(benzofuran-3-yl)-1-(2-oxo-2-((2-chloropyridin-3-yl)amino)acetamido)ethyl)boronic acid] | 2.31 nM |  |  |  |  | 1.79 nM | 25.4 nM
CC1COB([C@H](Cc2coc3ccccc23)NC(=O)C(=O)Nc2cnccn2)O1 (stereo partly drawn) [Ex. 68] | 1.24 nM |  |  |  |  | 1.1 nM | 34.8 nM
C[C@@H]1COB([C@H](Cc2coc3ccccc23)NC(=O)C(=O)Nc2cnccn2)O1 [Ex. 69] | 1.44 nM |  |  |  |  | 0.88 nM | 18.2 nM
O=C(Nc1cnccn1)C(=O)N[C@@H](Cc1coc2ccccc12)B1OCCCO1 [Ex. 70] | 1.5 nM |  |  |  |  | 0.91 nM | 26 nM
CC1(C)COB([C@H](Cc2coc3ccccc23)NC(=O)C(=O)Nc2cnccn2)OC1 [Ex. 71] | 1.18 nM |  |  |  |  | 1.35 nM | 28.5 nM
CC1(C)CC(C)(C)OB([C@H](Cc2coc3ccccc23)NC(=O)C(=O)Nc2cnccn2)O1 [Ex. 72] | 1.46 nM |  |  |  |  | 0.98 nM | 21.8 nM
